Experimental data reported in patent US20240287042A1, “NOVEL COMPOUND HAVING INHIBITORY ACTIVITY AGAINST PENDRIN, AND PHARMACEUTICAL USES THEREOF” (UIF (University Industry Foundation), Yonsei University, priority 2021, published 2024).

Target: T1, human wild-type (WT)-pendrin (Homo sapiens, UniProt O43511)
T1 construct: expressed in transfected cells
T1 sequence (O43511 1-780): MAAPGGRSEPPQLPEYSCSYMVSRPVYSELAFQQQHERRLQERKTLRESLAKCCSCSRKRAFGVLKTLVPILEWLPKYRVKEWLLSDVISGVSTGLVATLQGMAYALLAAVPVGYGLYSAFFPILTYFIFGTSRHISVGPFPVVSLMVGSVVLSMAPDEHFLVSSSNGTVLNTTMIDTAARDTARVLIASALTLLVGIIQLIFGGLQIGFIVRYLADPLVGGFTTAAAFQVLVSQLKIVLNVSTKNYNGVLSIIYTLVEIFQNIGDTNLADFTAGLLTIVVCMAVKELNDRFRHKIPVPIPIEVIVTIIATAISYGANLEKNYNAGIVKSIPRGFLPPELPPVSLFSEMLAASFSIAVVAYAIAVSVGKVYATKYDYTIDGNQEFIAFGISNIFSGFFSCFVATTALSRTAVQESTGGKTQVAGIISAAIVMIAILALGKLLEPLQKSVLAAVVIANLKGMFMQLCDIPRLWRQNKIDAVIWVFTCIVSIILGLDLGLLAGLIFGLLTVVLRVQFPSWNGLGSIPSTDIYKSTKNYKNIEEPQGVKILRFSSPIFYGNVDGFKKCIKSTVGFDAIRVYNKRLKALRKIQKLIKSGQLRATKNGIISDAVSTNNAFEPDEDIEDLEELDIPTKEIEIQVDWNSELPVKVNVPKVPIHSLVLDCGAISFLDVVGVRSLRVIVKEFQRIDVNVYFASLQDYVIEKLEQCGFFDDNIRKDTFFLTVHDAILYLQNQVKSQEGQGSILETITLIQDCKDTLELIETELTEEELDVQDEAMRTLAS
Experiment: Pendrin Cl−/I− exchange inhibitory activity, YFP fluorescence in CHO-K1 cells
Type: cell-based
Conditions: CHO-K1; for inhibition at 1 µM: compound concentration 1 μM; for inhibition at 3 µM: compound concentration 3 μM; for inhibition at 10 µM: compound concentration 10 μM; for inhibition at 30 µM: compound concentration 30 μM; for inhibition at 100 µM: compound concentration 100 μM
Procedure: Chinese hamster ovary (CHO)-K1 cells were cultured in DMEM medium containing 10% fetal bovine serum (FBS), 100 units/ml of penicillin and 100 μg/ml streptomycin. CHO-K1 cells were stably transfected with pcDNA3.1 encoding the halide sensor YFP-H148Q/I152L/F46L and human wild-type (WT)-pendrin.
(§1) CHO-K1 cells expressing human WT pendrin and YFP-F46L/H148Q/I152L were plated in 96-well microplates at a density of 2×10^4 cells per well, and cultured for 48 hours. Each well of the cell cultured 96-well plate was washed 2 times with 200 μL of PBS, and filled with 50 μL of HEPES buffered solution (140 mM NaCl, 5 mM KCl, 1 mM MgCl2, 1 mM CaCl2), 10 mM glucose and 10 mM HEPES (pH 7.4)). Test compounds (1 μL) were added to a final concentration of 1, 3, 10, 30 and 100 μM. After culturing at 37° C. for 10 minutes, the 96-well plate was located on the FLUOstar Omega Microplate Reader (BMG Labtech, Ortenberg, Germany) for a fluorescence assay. Fluorescence was recorded continuously (400 ms per point) for 1 second (baseline), whereby each well was assayed individually for pendrin-mediated I-influx. Then 50 μL of Na-substituted HEPES buffered solution (replacing NaCl with NaI) was added using a liquid injector at 1 second, and YFP fluorescence was recorded for 5 seconds. The initial iodide influx rate was determined from the initial slope of fluorescence by nonlinear regression, after the injection of iodide.
as §1, with “Chinese hamster ovary (CHO)-K1 cells were cultured in DMEM medium containing 10% fetal bovine serum (FBS), 100 units/ml of penicillin and 100 μg/ml streptomycin. CHO-K1 cells were stably transfected with pcDNA3.1 encoding the halide sensor YFP-H148Q/I152L/F46L and human wild-type (WT)-pendrin. 3-2: Assay of Cl^−/I^− exchange activity CHO-K1” for “CHO-K1”, “50” for “1, 3, 10, 30 and 100”, “Then,” for “Then”, “NaI-substituted” for “Na-substituted”

Compound	inhibition at 1 µM	inhibition at 3 µM	inhibition at 10 µM	inhibition at 30 µM	inhibition at 100 µM
O=C(O)c1[nH]c2ccc(Cl)cc2c1CC(=O)N1CCN(c2ccc(C(F)(F)F)cc2)CC1 [YPI-A4779, 5-Chloro-3-(2-oxo-2-(4-(4-(trifluoromethyl)phenyl)piperazin-1-yl)ethyl)-1H-indole-2-carboxylic acid]	< 20%	< 20%	66.7%	92.7%	95.3%
O=C(O)c1[nH]c2ccc(Cl)cc2c1CC(=O)N1CCN(c2ccccc2C(F)(F)F)CC1 [YPI-A4781, 5-Chloro-3-(2-oxo-2-(4-(2-(trifluoromethyl)phenyl)piperazin-1-yl)ethyl)-1H-indole-2-carboxylic acid]	< 20%	21.5%	71.4%	93.8%	95.6%
Cc1cccc(C)c1N1CCN(C(=O)Cc2c(C(=O)O)[nH]c3ccc(Cl)cc23)CC1 [YPI-A4783, 5-Chloro-3-(2-(4-(2,6-dimethylphenyl)piperazin-1-yl)-2-oxoethyl)-1H-indole-2-carboxylic acid]	39.9%	74.5%	100%	100%	100%
Cc1cccc(N2CCN(C(=O)Cc3c(C(=O)O)[nH]c4ccc(Cl)cc34)CC2)c1C [YPI-A4799, 5-Chloro-3-(2-(4-(2,3-dimethylphenyl)piperazin-1-yl)-2-oxoethyl)-1H-indole-2-carboxylic acid]	27.9%	65.3%	94.2%	95.5%	97.1%
Cc1ccc(N2CCN(C(=O)Cc3c(C(=O)O)[nH]c4ccc(Cl)cc34)CC2)c(C)c1 [YPI-A4801, 5-Chloro-3-(2-(4-(2,4-dimethylphenyl)piperazin-1-yl)-2-oxoethyl)-1H-indole-2-carboxylic acid]	40.9%	72.8%	95.4%	96.7%	97.4%
O=C(O)c1[nH]c2ccc(Cl)cc2c1CC(=O)N1CCN(c2ccccc2Cl)CC1 [YPI-A4803, 5-Chloro-3-(2-(4-(2-chlorophenyl)piperazin-1-yl)-2-oxoethyl)-1H-indole-2-carboxylic acid]	< 20%	< 20%	39.4%	73.9%	95.7%
O=C(O)c1[nH]c2ccc(Cl)cc2c1CC(=O)N1CCN(c2ccc(Cl)cc2)CC1 [YPI-A4843, 5-Chloro-3-(2-(4-(4-chlorophenyl)piperazin-1-yl)-2-oxoethyl)-1H-indole-2-carboxylic acid]	< 20%	< 20%	40.3%	91.4%	92.1%
O=C(O)c1[nH]c2ccc(Cl)cc2c1CC(=O)N1CCN(c2ccccc2Br)CC1 [YPI-A4844, 3-(2-(4-(2-Bromophenyl)piperazin-1-yl)-2-oxoethyl)-5-chloro-1H-indole-2-carboxylic acid]	< 20%	< 20%	59.7%	92.5%	–
O=C(O)c1[nH]c2ccc(Cl)cc2c1CC(=O)N1CCN(c2cccc(Br)c2)CC1 [YPI-A4845, 3-(2-(4-(3-Bromophenyl)piperazin-1-yl)-2-oxoethyl)-5-chloro-1H-indole-2-carboxylic acid]	< 20%	< 20%	35.1%	88.8%	–
O=C(O)c1[nH]c2ccc(Cl)cc2c1CC(=O)N1CCN(c2ccc(Br)cc2)CC1 [YPI-A4846, 3-(2-(4-(4-Bromophenyl)piperazin-1-yl)-2-oxoethyl)-5-chloro-1H-indole-2-carboxylic acid]	< 20%	< 20%	73.3%	94.7%	–
Cc1ccccc1N1CCN(C(=O)Cc2c(C(=O)O)[nH]c3ccc(Cl)cc23)CC1 [YPI-A4847, 5-Chloro-3-(2-oxo-2-(4-(o-tolyl)piperazin-1-yl)ethyl)-1H-indole-2-carboxylic acid]	< 20%	< 20%	60.6%	91.5%	92.4%
Cc1cccc(N2CCN(C(=O)Cc3c(C(=O)O)[nH]c4ccc(Cl)cc34)CC2)c1 [YPI-A4848, 5-Chloro-3-(2-oxo-2-(4-(m-tolyl)piperazin-1-yl)ethyl)-1H-indole-2-carboxylic acid]	< 20%	< 20%	< 20%	58.9%	90.5%
Cc1ccc(N2CCN(C(=O)Cc3c(C(=O)O)[nH]c4ccc(Cl)cc34)CC2)cc1 [YPI-A4849, 5-Chloro-3-(2-oxo-2-(4-(p-tolyl)piperazin-1-yl)ethyl)-1H-indole-2-carboxylic acid]	< 20%	< 20%	36.8%	90.9%	92.3%
COc1ccccc1N1CCN(C(=O)Cc2c(C(=O)O)[nH]c3ccc(Cl)cc23)CC1 [YPI-A4876, 5-Chloro-3-(2-(4-(2-methoxyphenyl)piperazin-1-yl)-2-oxoethyl)-1H-indole-2-carboxylic acid]	< 20%	< 20%	< 20%	< 20%	56.8%
COc1cccc(N2CCN(C(=O)Cc3c(C(=O)O)[nH]c4ccc(Cl)cc34)CC2)c1 [YPI-A4877, 5-Chloro-3-(2-(4-(3-methoxyphenyl)piperazin-1-yl)-2-oxoethyl)-1H-indole-2-carboxylic acid]	< 20%	< 20%	< 20%	< 20%	67.5%
COc1ccc(N2CCN(C(=O)Cc3c(C(=O)O)[nH]c4ccc(Cl)cc34)CC2)cc1 [YPI-A4878, 5-Chloro-3-(2-(4-(4-methoxyphenyl)piperazin-1-yl)-2-oxoethyl)-1H-indole-2-carboxylic acid]	< 20%	< 20%	< 20%	< 20%	79.4%
CC(C)(C)OC(=O)N1CCN(C(=O)Cc2c(C(=O)O)[nH]c3ccc(Cl)cc23)CC1 [YPI-A4879, 3-(2-(4-(tert-butoxycarbonyl)piperazin-1-yl)-2-oxoethyl)-5-chloro-1H-indole-2-carboxylic acid]	< 20%	< 20%	< 20%	< 20%	< 20%
